The target in assay [1] is AICAR transformylase (Lactobacillus casei). In words: Inhibitory activity against AICAR formyltransferase.
Assay [2] deals with T1, Bifunctional purine biosynthesis protein ATIC (Homo sapiens, UniProt P31939). Kind of assay: Binding affinity towards AICAR formyltransferase.
Assay [3] has as its target T1, Bifunctional purine biosynthesis protein ATIC. In words: Inhibitory activity against AICAR formyltransferase.

T1 sequence (P31939 whole entry): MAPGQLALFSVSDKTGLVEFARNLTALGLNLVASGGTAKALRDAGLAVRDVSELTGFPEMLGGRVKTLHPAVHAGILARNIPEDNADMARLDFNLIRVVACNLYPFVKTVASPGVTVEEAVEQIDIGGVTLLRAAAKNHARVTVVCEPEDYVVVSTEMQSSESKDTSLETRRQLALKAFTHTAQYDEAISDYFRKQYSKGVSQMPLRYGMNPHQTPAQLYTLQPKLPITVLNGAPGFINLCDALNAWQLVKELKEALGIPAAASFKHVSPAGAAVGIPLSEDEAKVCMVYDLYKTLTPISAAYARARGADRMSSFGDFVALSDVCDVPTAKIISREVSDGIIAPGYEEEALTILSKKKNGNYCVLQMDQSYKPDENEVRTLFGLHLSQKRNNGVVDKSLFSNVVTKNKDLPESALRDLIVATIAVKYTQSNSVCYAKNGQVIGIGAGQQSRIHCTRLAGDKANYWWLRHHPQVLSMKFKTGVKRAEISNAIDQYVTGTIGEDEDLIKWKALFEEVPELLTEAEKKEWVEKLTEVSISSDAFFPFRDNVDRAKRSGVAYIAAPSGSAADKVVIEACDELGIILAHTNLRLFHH

What is called IC50 is the concentration that inhibits the measured activity by half. In assay [1], `Nc1nc(=O)c2nc(CN(C=O)c3ccc(C(=O)N[C@H](CCC(=O)O)C(=O)O)cc3)ccc2[nH]1` displayed an IC50 of 6.4 µM. As a reminder, the Kd is the constant that tells how readily two partners part at equilibrium. Higher therefore signals a looser complex. `NC(=O)c1ncn(C2O[C@H](COP(=O)(O)O)[C@@H](O)[C@H]2O)c1/C=C/C(=O)N(CC1=NC2C(=O)NC(N)=NC2C=C1)c1ccc(C(=O)N[C@@H](CCC(=O)O)C(=O)O)cc1` (stereo partly drawn) yielded a Kd in assay [2] of 20 nM. The compound further had an IC50 in assay [3] of 125 nM.

Source of the values: ChEMBL document CHEMBL1132365, “A multisubstrate adduct inhibitor of AICAR transformylase” (J Med Chem, 1999).
